Columns and labels:
[1] = tested on: MCF-7 cells; assay: Annexin V-FITC/PI apoptotic assay by flow cytometry; type: cell-based, human; details: 2 µM, 48 h; control 8.3%
Experimental: In order to determine the capacity of compound 3a to induce apoptosis, an Annexin V-FITC/PI dual staining assay was performed on the MCF-7 cells by flow cytometry.
Flow cytometry using Annexin V and propidium iodide (PI) was performed in order to detect apoptotic cell death. MCF-7 cells were seeded at a density of 1 × 10^5 cells/well, treated with the vehicle (0.1% (v/v) EtOH) or compound 3a (2 µM), and incubated for 48 h. The cells were then harvested and washed twice in 1X binding buffer, and incubated in the dark for 30 min on ice in Annexin V-containing binding buffer [1:100]. They were then re-suspended in PI-containing binding buffer [1:1000]. The samples were analyzed immediately using a BD Accuri flow cytometer, and GraphPad Prism software version 5.01 was used to analyze the data. Four populations were identified during the assay: Annexin V-negative and PI-negative (Q4, healthy cells), Annexin V-positive and PI-negative (Q3, early apoptosis), Annexin V-positive and PI-positive (Q2, late apoptosis), and Annexin V-negative and PI-positive (Q1, necrosis).
Figure 5 Compound 3a potently induces apoptosis in breast cancer MCF-7 cells (Annexin V/PI Fluorescence-activated cell sorting (FACS)). (A) Flow cytometry analysis of the effect of compound 3a on MCF-7 cells. […] (B) The quantitative analysis of the apoptosis. […]

[2] = tested on: HEK-293 cells; assay: MTT cell viability assay, non-tumorigenic HEK-293; type: cell-based; details: Homo sapiens, HEK293, 72 h, non-tumorigenic cell line
Experimental: Additional assays were run with 3a, the most promising compound. Its toxicity was evaluated using HEK-293 (normal human embryonic kidney), which is a non-tumorigenic cell line.
In order to calculate the relative IC50 values, the antiproliferative effect of compounds 3a–o was tested in three cancer cell lines (MCF-7, MDA-MB-231, HCT-116) and normal epithelial embryonic kidney cells (HEK-293) using the MTT viability assay. The cells were seeded in 96-well plates at a density of 10 × 10^3 cells/mL, in a total volume of 200 µL per well. In total, 0.1% DMSO was used as a vehicle control. After 24 h, the cells were treated with 2 µL of the test compound, which had been pre-prepared as a stock solution to furnish the concentration range of the study (0.01–100 µM), and re-incubated for 72 h. The culture medium was then removed, and the cells were washed with phosphate-buffered saline (PBS), and 100 µL MTT was added (for a final concentration of 5 mg/mL MTT). The cells were incubated for 4 h in darkness at 37 °C. Next, 200 µL DMSO was added to each well, and the cells were maintained at room temperature in darkness for 20 min. The absorbance was detected with a microplate reader at 570 nm. The results were expressed as a percentage of viability relative to the vehicle control (100%). […]

[3] = tested on: zebrafish embryos; assay: Zebrafish embryo imaging (morphology, teratogenicity); type: in vivo; details: 1 mM, embryos at 48 hpf, versus untreated embryos
Description: The treated embryos had cardiac edema, craniofacial defects, tail lesions, and a delay in embryonic development. These observations are consistent with the findings in the literature.
A Zeiss Observer D1 inverted microscope using Zeiss ZEN software was used to capture the images of the live zebrafish embryos.
Figure 6 Representative images of the zebrafish embryos 48 hpf (A) control or (B) treated.

[4] = tested on: HCT-116 cells; assay: MTT cell viability assay, HCT-116; type: cell-based; details: Homo sapiens, 72 h treatment
Experimental: The antiproliferative activity of the synthesized compounds was evaluated by the 3-(4,5-dimethylthiazol-2-yl)-2,5-diphenyl tetrazolium bromide (MTT) cell viability assay. Two types of breast cancer cell lines—namely MCF-7, which has estrogen and progesterone receptors, and MDA-MB-231, which is triple negative—were used, in addition to a colon cancer cell line (HCT-116).
The target products 3a–o were evaluated for their antiproliferative activity using the MTT viability assay of the MCF-7, MDA-MB-231 and HCT-116 cell lines (in triplicate) on at least three independent occasions for the determination of the reported mean values.
The three human tumor cell lines MCF-7, MDA-MB-231 and HCT-116 were cultured in Dulbecco’s Modified Eagle’s Medium (DMEM) with 10% fetal bovine serum, 2 mM L-glutamine and 100 µg/mL penicillin/streptomycin. The cells were maintained at 37 °C in 5% CO2 in a humidified incubator. All of the cells were sub-cultured 3 times/week by trypsinization using TrypLE Express (1×).
In order to calculate the relative IC50 values, the antiproliferative effect of compounds 3a–o was tested in three cancer cell lines (MCF-7, MDA-MB-231, HCT-116) and normal epithelial embryonic kidney cells (HEK-293) using the MTT viability assay. The cells were seeded in 96-well plates at a density of 10 × 10^3 cells/mL, in a total volume of 200 µL per well. In total, 0.1% DMSO was used as a vehicle control. […] The culture medium was then removed, and the cells were washed with phosphate-buffered saline (PBS), and 100 µL MTT was added (for a final concentration of 5 mg/mL MTT). The cells were incubated for 4 h in darkness at 37 °C. Next, 200 µL DMSO was added to each well, and the cells were maintained at room temperature in darkness for 20 min. The absorbance was detected with a microplate reader at 570 nm. The results were expressed as a percentage of viability relative to the vehicle control (100%). The dose-response curves were plotted, and the IC50 values were obtained using Prism software (GraphPad Software, Inc., La Jolla, CA, USA). All of the experiments were repeated in three independent experiments.

`COC(=O)CNC(=O)CNc1nc(Nc2ccccc2)nc(N2CCOCC2)n1` [Compound 3a, Methyl (4-morpholino-6-(phenylamino)-1,3,5-triazin-2-yl) glycylglycinate] was tested, and the “Annexin V-positive cells (total apoptotic cells)” value [1] was 37.4%, the IC50 [2] was greater than 50 µM and the “embryonic abnormality or morphological difference in zebrafish embryo images” value [3] was “did not indicate any embryonic abnormality or morphological difference”. It also gave an IC50 [4] of 17.9 ± 3.74 µM.
